Tested on: subjects with chronic idiopathic thrombocytopenic purpura (ITP)
Assay: Phase 2 28-day study of E5501 tablets: safety and tolerability (TEAEs, discontinuations)
Assay type: in vivo, human
Details: for Discontinued study, primary reason Adverse Event or SAE / Discontinued study, primary reason Platelet Count Increase to ≧500 K/mm^3: randomized/safety/FAS; for Blood and lymphatic system disorders / Cardiac disorders / Eye disorders / Gastritis haemorrhagic / Gastrointestinal disorders / Infections and infestations / Myocardial infarction / Nervous system disorders / Pneumonia / Retinal artery occlusion / Thrombocytopenia / Transient ischaemic attack: serious TEAE
Protocol: This was a phase 2, multi-center, double-blind, randomized, placebo-controlled, dose-ranging, parallel group study of E5501 tablets, used in the treatment of subjects with chronic idiopathic thrombocytopenic purpura (ITP) refractory to or relapsed after at least one prior ITP therapy. Subjects who met all entry criteria were randomly assigned in a 3:3:3:3:1 ratio to one of the following five treatment groups dosed daily for 28 days: 1) E5501 2.5 mg; 2) E5501 5 mg; 3) E5501 10 mg; 4) E5501 20 mg; or 5) placebo (PBO). Each E5501 dosing group consisted of 15 subjects while the PBO group consisted of 5 subjects. All study subjects were evaluated weekly (days 7, 14, 21 and 28) for safety and efficacy while receiving study treatment, with a final assessment for safety and effectiveness performed 4 weeks after the last study dose (day 56) unless the subject entered the follow-on study. Platelet counts were also measured on day 3 and day 5.
The safety and tolerability parameters included adverse events, clinical laboratory parameters, study drug exposure, vital electrocardiograms, concomitant medications, serum pregnancy tests for women of childbearing potential and physical examinations including height, weight, general appearance and recording of vital signs.
The populations of interest were defined as follows: • The randomized population included all subjects who were randomized into the study. • The safety population included all randomized subjects who receive at least one dose of study drug and have at least one safety assessment. • The pharmacokinetic (PK) population included all subjects who provided blood sample for analysis of E5501. A subject was included in this population if the subject had at least one blood draw for PK assessment. • The full analysis set (FAS) included all subjects who provided adequate data to derive at least one efficacy assessment. […] The day 28 visit window was defined to be from day 25, to last dose day+1, inclusively; • Other major protocol violations that impacted the platelet endpoint evaluation. Results from Planned Analyses
Subject Disposition. Sixty four subjects were randomly assigned to treatment in this study. All treated subjects provided adequate efficacy data and therefore were included in the FAS population. The number and percentage of subjects who completed treatment or discontinued prematurely were summarized by treatment groups as shown in Table 1. In addition, the number and percentage of subjects who withdrew were summarized by reason for discontinuation by treatment group. The majority (>85%) of subjects completed the study across all dose groups for the FAS, randomized, and safety populations. Seven subjects who discontinued the study early all were from E5501 dose groups: two subjects in each of 2.5, 10 and 20 mg dose groups and one subject in the 5 mg dose group.

O=C(Nc1nc(-c2cc(Cl)cs2)c(N2CCN(C3CCCCC3)CC2)s1)c1cnc(N2CCC(C(=O)O)CC2)c(Cl)c1 [E5501, 1-(3-chloro-5-{[4-(4-chlorothiophen-2-yl)-5-(4-cyclohexylpiperazin-1-yl)thiazol-2-yl]carbamoyl}pyridine-2-yl)piperidine-4-carboxylic acid]
4 cases: TEAE leading to withdrawal of study treatment (all E5501)
59.3%: subjects with TEAE possibly or probably related to E5501 (all E5501-treated subjects)
1 (7.1) n (%): Discontinued study, primary reason Adverse Event or SAE (10 mg) | Cardiac disorders (10 mg) | Eye disorders (10 mg) | Infections and infestations (10 mg) | Myocardial infarction (10 mg) | Nervous system disorders (10 mg) | Pneumonia (10 mg) | Retinal artery occlusion (10 mg) | Transient ischaemic attack (10 mg)
3 (5.1) n (%): Ecchymosis (TEAE, Total E5501) | Nausea (TEAE, Total E5501) | Pain in extremity (TEAE, Total E5501) | Upper respiratory tract infection (TEAE, Total E5501) | Serious TEAEs (Any Serious TEAE) (Total E5501) | TEAE Leading to Study Treatment Dose Interruption (Total E5501)
5 (8.5) n (%): Diarrhoea (TEAE, Total E5501)
two: subjects who withdrew due to an AE (one for each of the 5 and 10 mg dose groups)
12 (20.3) n (%): Fatigue (TEAE, Total E5501) | Headache (TEAE, Total E5501)
6.8%: subjects with a TEAE leading to study drug withdrawal (all E5501)
2 (13.3) n (%): Discontinued study, primary reason Platelet Count Increase to ≧500 K/mm^3 (20 mg)
35 (59.3) n (%): Treatment-Related TEAEs (Total E5501)
84.7%: subjects who experienced a treatment emergent adverse event (TEAE) (all E5501-treated subjects)
6: number of serious TEAEs (overall)
1 (6.7) n (%): Discontinued study, primary reason Adverse Event or SAE (5 mg) | Blood and lymphatic system disorders (2.5 mg) | Gastritis haemorrhagic (2.5 mg) | Gastrointestinal disorders (2.5 mg) | Thrombocytopenia (2.5 mg)
15.3%: Epistaxis (all E5501-treated subjects)
50 (84.7) n (%): TEAEs (Total E5501)
1 (1.7) n (%): Treatment-Related Serious TEAEs (Total E5501) | Blood and lymphatic system disorders (Total E5501) | Cardiac disorders (Total E5501) | Eye disorders (Total E5501) | Gastritis haemorrhagic (Total E5501) | Gastrointestinal disorders (Total E5501) | Infections and infestations (Total E5501) | Myocardial infarction (Total E5501) | Nervous system disorders (Total E5501) | Pneumonia (Total E5501) | Retinal artery occlusion (Total E5501) | Thrombocytopenia (Total E5501) | Transient ischaemic attack (Total E5501)
2 (3.4) n (%): Migraine (TEAE, Total E5501) | Petechiae (TEAE, Total E5501) | Discontinued study, primary reason Adverse Event or SAE (Total E5501) | Discontinued study, primary reason Platelet Count Increase to ≧500 K/mm^3 (Total E5501)
20.3%: Fatigue (all E5501-treated subjects) | Headache (all E5501-treated subjects)
4 (6.8) n (%): Platelet count increased (TEAE, Total E5501) | Vomiting (TEAE, Total E5501) | TEAE Leading to Study Treatment Withdrawal (Total E5501)
3 cases: TEAE leading to study treatment interruption (all E5501)
0 n (%): Death (Total E5501) | Discontinued study, primary reason Adverse Event or SAE (2.5 mg) | Discontinued study, primary reason Platelet Count Increase to ≧500 K/mm^3 (2.5 mg) | Discontinued study, primary reason Platelet Count Increase to ≧500 K/mm^3 (5 mg) | Discontinued study, primary reason Platelet Count Increase to ≧500 K/mm^3 (10 mg) | Discontinued study, primary reason Adverse Event or SAE (20 mg) | Cardiac disorders (2.5 mg) | Eye disorders (2.5 mg) | Infections and infestations (2.5 mg) | Myocardial infarction (2.5 mg) | Nervous system disorders (2.5 mg) | Pneumonia (2.5 mg) | Retinal artery occlusion (2.5 mg) | Transient ischaemic attack (2.5 mg) | Blood and lymphatic system disorders (5 mg) | Cardiac disorders (5 mg) | Eye disorders (5 mg) | Gastritis haemorrhagic (5 mg) | Gastrointestinal disorders (5 mg) | Infections and infestations (5 mg) | Myocardial infarction (5 mg) | Nervous system disorders (5 mg) | Pneumonia (5 mg) | Retinal artery occlusion (5 mg) | Thrombocytopenia (5 mg) | Transient ischaemic attack (5 mg) | Blood and lymphatic system disorders (10 mg) | Gastritis haemorrhagic (10 mg) | Gastrointestinal disorders (10 mg) | Thrombocytopenia (10 mg) | Blood and lymphatic system disorders (20 mg) | Cardiac disorders (20 mg) | Eye disorders (20 mg) | Gastritis haemorrhagic (20 mg) | Gastrointestinal disorders (20 mg) | Infections and infestations (20 mg) | Myocardial infarction (20 mg) | Nervous system disorders (20 mg) | Pneumonia (20 mg) | Retinal artery occlusion (20 mg) | Thrombocytopenia (20 mg) | Transient ischaemic attack (20 mg)
9 (15.3) n (%): Epistaxis (TEAE, Total E5501)

From patent publication US20110166112A1, “METHOD FOR STIMULATING PLATELET PRODUCTION” (Eisai, Inc., priority 2009, published 2011)
